From article PMC9318203, “Squaramide-Tethered Sulfonamides and Coumarins: Synthesis, Inhibition of Tumor-Associated CAs IX and XII and Docking Simulations” (International Journal of Molecular Sciences, 2022)

Experiments:
hCA I = biological target: T1, hCA I (Homo sapiens, UniProt P00915); assay: stopped-flow CO2 hydrase assay, hCA I; format: biochemical
T1 construct: made in house
Procedure: (§1) For that purpose, the stopped-flow CO2 hydration assay was used (Table 1).
(§2) The inhibitory properties of title compounds against CAs were determined using the stopped-flow CO2 hydrase assay, as previously reported.

[1] = tested on: A549, HBL-100, HeLa, SW1573, T-47D, WiDr; assay: antiproliferative assay (NCI protocol), panel of six human tumor cell lines; format: cell-based; settings: normoxic conditions
Procedure: (§3) Some representative compounds (5a–e, 16b, 16e–i) were also tested as potential antiproliferative agents against a panel of six human tumor cell lines: A549 (non-small cell lung), HBL-100 (breast), HeLa (cervix), SW1573 (non-small cell lung), T-47D (breast), WiDr (colon). Unfortunately, no relevant activity was found for the tested compounds.
(§4) Minor modifications of the US National Cancer Institute (NCI) protocol were used.

hCA II = biological target: T2, hCA II (Homo sapiens, UniProt P00918); assay: stopped-flow CO2 hydrase assay, hCA II; format: biochemical
T2 construct: made in house
Procedure: as §1, §2

hCA IX = biological target: T3, hCA IX (Homo sapiens, UniProt Q16790); assay: stopped-flow CO2 hydrase assay, hCA IX; format: biochemical
T3 construct: made in house
Procedure: as §1, §2

hCA XII = biological target: T4, hCA XII (Homo sapiens, UniProt O43570); assay: stopped-flow CO2 hydrase assay, hCA XII; format: biochemical
T4 construct: made in house
T4 sequence (O43570 25-354): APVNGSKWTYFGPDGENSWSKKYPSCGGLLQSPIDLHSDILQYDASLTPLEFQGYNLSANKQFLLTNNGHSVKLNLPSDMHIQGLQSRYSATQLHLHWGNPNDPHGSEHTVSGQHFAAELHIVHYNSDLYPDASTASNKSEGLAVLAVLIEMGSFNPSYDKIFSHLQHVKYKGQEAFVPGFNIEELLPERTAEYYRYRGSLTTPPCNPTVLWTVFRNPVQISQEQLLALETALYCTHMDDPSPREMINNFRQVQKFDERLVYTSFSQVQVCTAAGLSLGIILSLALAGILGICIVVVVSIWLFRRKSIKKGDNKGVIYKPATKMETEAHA
Procedure: as §1, §2

[2] = tested on: A549 (non-small cell lung); assay: antiproliferative assay (NCI protocol), A549; format: cell-based; settings: Homo sapiens; line A549; normoxic conditions
Procedure: as §3, §4

[3] = sulfonamido-containing squaramides, mean from 3 assays, stopped flow
[4] = coumarin-containing squaramides, incubation time 6 h, mean from three assays

T1 sequence (P00915 whole entry): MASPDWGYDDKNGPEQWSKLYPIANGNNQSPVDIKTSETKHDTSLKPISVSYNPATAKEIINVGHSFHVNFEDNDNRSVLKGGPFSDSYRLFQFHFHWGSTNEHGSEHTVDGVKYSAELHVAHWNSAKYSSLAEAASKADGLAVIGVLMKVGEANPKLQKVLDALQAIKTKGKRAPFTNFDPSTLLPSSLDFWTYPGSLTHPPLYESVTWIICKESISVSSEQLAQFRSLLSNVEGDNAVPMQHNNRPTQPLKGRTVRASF

Row | Ki (hCA I; [3]) [nM] | Ki (hCA II; [3]) [nM] | S.I. I/IX (hCA IX; Ki (CA I)/Ki (CA IX)) | S.I. II/IX (hCA IX; Ki (CA II)/Ki (CA IX)) | Ki (hCA IX; [3]) [nM] | S.I. I/XII (hCA XII; Ki (CA I)/Ki (CA XII)) | S.I. II/XII (hCA XII; Ki (CA II)/Ki (CA XII)) | Ki (hCA XII; [3]) [nM] | Ki (hCA I; [4]) [nM] | melting point [°C] | Ki (hCA II; [4]) [nM] | Ki (hCA IX; [4]) [nM] | Ki (hCA XII; [4]) [nM] | Compound | GI50 ([1]; all the cell lines) [nM] | GI50 ([1]; the rest of the cell lines (other than A549)) [nM] | GI50 [2] [nM]
1 | 43.2 | 56.2 | 0.52 | 0.68 | 83 | 0.49 | 0.64 | 87.8 | – | – | – | – | – | NS(=O)(=O)c1ccc(CCNc2c(NCCc3ccc(S(N)(=O)=O)cc3)c(=O)c2=O)cc1 [Compound 6, 3,4-Bis[2′-(4″-sulfonamidophenyl)ethylamino]cyclobut-3-ene-1,2-dione] | > 100000 | – | –
2 | – | – | – | – | – | – | – | – | > 10000 | > 250 | > 10000 | 44.1 | 14.3 | Cc1cc(=O)oc2cc(OCCCCCNc3c(Nc4ccccc4)c(=O)c3=O)ccc12 [Compound 16b, 3-{[5′-((4″-Methyl-2″-oxo-2″H-chromen-7″-yl)oxy)pentyl]amino}-4-phenylaminocyclobut-3-ene-1,2-dione] | – | > 100000 | 94000 ± 10000
3 | – | – | – | – | – | – | – | – | > 10000 | 215 to 216 | > 10000 | 59.7 | 19.5 | COc1ccc(Nc2c(NCCCCCOc3ccc4c(C)cc(=O)oc4c3)c(=O)c2=O)cc1 [Compound 16e, 3-[(4′-Methoxyphenyl)amino]-4-{[5″-(4‴-methyl-2‴-oxo-2‴H-chromen-7‴-yl)oxypentyl]amino}cyclobut-3-ene-1,2-dione] | > 100000 | – | –
4 | – | – | – | – | – | – | – | – | > 10000 | – | > 10000 | 43.7 | 15.9 | Cc1cc(=O)oc2cc(OCCCCCNc3c(Nc4ccc(F)cc4)c(=O)c3=O)ccc12 [Compound 16f, 3-[(4′-Fluorophenyl)amino]-4-{[5″-(4‴-methyl-2‴-oxo-2‴H-chromen-7‴-yl)oxypentyl]amino}cyclobut-3-ene-1,2-dione] | > 100000 | – | –
